In patent publication US20030143165A1, “NSAID-containing topical formulations that demonstrate chemopreventive activity” (priority 2002, published 2003):

Columns and labels:
[1] = system: SKH-1 mice (hairless mice); assay: UV light-induced skin carcinogenesis (papillomas/tumours) in hairless mice, topical treatment for 28 weeks; assay type: in vivo; conditions: for animals that had developed at least one tumour at the end of the study: week 28
Protocol: In a first laboratory experiment performed, female SKH-1 mice (hairless mice) were purchased from the Animal Resource Service of Murdoch University, Western Australia, at approximately 3-4 weeks of age. Upon arrival at the Applicants' laboratory, the mice were housed in climate-controlled quarters (22±1° C. at 50% humidity) with a 12-hour light/dark cycle in yellow fluorescent lighting. All animals were allowed free access to rodent diet and water. The experimental protocol and all procedures were approved by CSIRO Health Sciences and Nutrition Animal Experimental Ethics Committee and followed the Australian Code of Practice for the care and use of animals for scientific purposes. The animals were observed daily during the period of UV light exposure. Individual body weights were determined twice weekly throughout the whole study period of 28 weeks.
Racemic flurbiprofen (“RS-FB”), used as the chemopreventive NSAID in this experiment, was purchased from Sigma Chemical Company (Sydney, Australia). Several topical formulation solutions were prepared by dissolving RS-FB in 70% ethanol (in water) as the carrier medium to achieve final RS-FB concentrations of 0.5, 1.0, 2.0 and 3.0% w/v. The drug solutions were prepared every two weeks throughout the whole study period.
The SKH-1 mice were divided into 5 treatment groups of 30 animals each. […] Within each treatment group, the animals were further divided into 2 subgroups of 15 animals. One subgroup was treated with vehicle or RS-FB solution one hour before the UV light exposure. The other subgroup was exposed to the UV light one hour before the application of vehicle or the allocated RS-FB solution. The solutions were applied topically to the dorsal area of the animals, in a volume of approximately 50-125 μl per application, using cotton tips.
Simulated solar irradiation was provided by an array of 6 UV-A tubes (Sylvania F40BL) symmetrically housed around a single UV-B tube (Philips FL 40SE) in a custom-built unit. As the skin of the animals progressively thickened, the time of exposure to reach 1 minimal erythematous dose (MED) was increased from 7 minutes per day to 10 minutes per day, 5 days a week. The integrated UV-B irradiance (280-320 nm) was 2.4×10^−4 W/cm^2, and the UV-A (320-400 nm) was 1.8×10^−3 W/cm^2 as measured with a model IL 1700 spectro-radiometer (International Light, Newburyport, Mass.). During treatment, the mice in each group were placed in separate open plastic cages in the UV housing unit. […] Treatment in this manner was continued for 28 weeks.
The development of skin cancer was assessed as the visible appearance of papillomas, which subsequently developed, in a subset of cases, to tumours. Weekly papilloma and tumour counts were performed after the appearance of the first papilloma and were continued until the termination of the experiment (week 28). The diameters of papillomas and tumours were measured and their locations noted. Data was recorded representing the number of (a) papillomas, (b) tumours and (c) papillomas plus tumours per animal. While the natural progression is from papilloma to tumour, it will be appreciated by those skilled in the art that, in some cases, the distinction between a papilloma and a tumour could not be made unequivocally. The data was analysed taking this into account. The appearance of the skin lesions was expressed progressively as incidence (percentage of mice bearing at least one papilloma/tumour) and yield (average number of papillomas/tumours per mouse) as well as burden (area of skin affected at the end of study).
Analysis of variance (ANOVA) was used to determine whether RS-FB administration caused a statistically significant change in the appearance and yield of papilloma/tumours in comparison with the control (vehicle group). Comparisons between groups was performed using the Scheffe method. Significance was concluded when P<0.05.

[2] = system: non-pigmented human skin cancer cell line MM96L; assay: in vitro proliferation (MTS colorimetric assay) and apoptosis of human skin cancer cell line; assay type: cell-based; conditions: for effect on proliferation rate (FIG. 4): 24 hours exposure, MTS assay; for apoptosis: DNA fragmentation, acridine orange staining, flow cytometry
From the text: FIG. 4 is a chart that graphically presents laboratory experiment test data regarding the relative effect of racemic flurbiprofen to its individual enantiomers, R-flurbiprofen flurbiprofen (“R-FB”) and S-flurbipofen (“S-FB”), on the in vitro proliferation of a cancerous human skin cell line. For the underlying experiment, the non-pigmented human skin cancer cell line M[…] was studied in vitro utilizing the MTS colorimetric assay to assess cell proliferation. DNA fragmentation assays, acridine orange staining and flow cytometry were also utilized to assess apoptosis and cell cycle effects. […] An important finding was that there was no difference between the enantiomers of flurbiprofen in their anti-proliferative potency, despite the fact that only the S-isomer was capable of reducing COX activity.

[3] = system: cyclooxygenase (COX); conditions: cited from earlier work
[4] = system: human skin cells; assay: anti-proliferative effects of other NSAIDs on human skin cells; assay type: cell-based; conditions: range depends on duration of exposure, read-out: IC50 (concentration required to inhibit cell proliferation by 50%)
From the text: FIG. 4 is a chart that graphically presents laboratory experiment test data regarding the relative effect of racemic flurbiprofen to its individual enantiomers, R-flurbiprofen flurbiprofen (“R-FB”) and S-flurbipofen (“S-FB”), on the in vitro proliferation of a cancerous human skin cell line. For the underlying experiment, the non-pigmented human skin cancer cell line MM96L was studied in vitro utilizing the MTS colorimetric assay to assess cell proliferation. DNA fragmentation assays, acridine orange staining and flow cytometry were also utilized to assess apoptosis and cell cycle effects. […] An important finding was that there was no difference between the enantiomers of flurbiprofen in their anti-proliferative potency, despite the fact that only the S-isomer was capable of reducing COX activity.
Further experiments similar to that discussed above with respect to FIG. 4 were conducted to assess the anti-proliferative effects of other NSAIDs on human skin cells. […] These values are similar to the IC50 vales encountered for flurbiprofen.

## CC(C(=O)O)c1ccc(-c2ccccc2)c(F)c1 (racemic) [racemic flurbiprofen, flurbiprofen]
[1]; 0.5% w/v topical in 70% ethanol, UV 5 days a week
  DP50 (time for 50% of mice within the group to develop at least one papilloma): 17 weeks
[1]; 0.5% w/v topical
  animals that had developed at least one tumour at the end of the study: 45%
[1]; 1% and 2% treatment groups, representative animals
  skin appearance at completion of week 28 (FIG. 3c, 3d) vs vehicle animal: reduction in tumours and ulcers
[1]; 1% w/v topical in 70% ethanol, UV 5 days a week
  DP50 (time for 50% of mice within the group to develop at least one papilloma): 17 weeks
[1]; 1.0% w/v topical
  animals that had developed at least one tumour at the end of the study: 25%
[1]; 2% w/v topical in 70% ethanol, UV 5 days a week
  DP50 (time for 50% of mice within the group to develop at least one papilloma): 17.5 weeks
[1]; 2.0% w/v topical
  animals that had developed at least one tumour at the end of the study: 25%
[1]; 3% w/v topical, initial treatment (until week 10)
  adverse effects in the animals: adverse effects (such as lethargy, dehydration, and diarrhoea)
[1]; 3-2% w/v topical (3%, then 2% from week 10)
  DP50 (time for 50% of mice within the group to develop at least one papilloma): 18.5 weeks
[1]; 3-2% w/v topical
  animals that had developed at least one tumour at the end of the study: 10%
[1]; all concentrations up to and including 2% topical, 28 weeks
  adverse effects / pathology in the animals: no signs of adverse effects
[1]; all treatment groups 0.5-3-2% w/v, ANOVA/Scheffe
  papilloma/tumour yield (average number per animal) vs control over time (FIG. 1): statistically significant from week 13
[1]; highest concentration (3-2% w/v) vs vehicle control
  reduction in the number of animals that developed skin tumours compared with control group: greater than 80%
[1]; papilloma/tumour incidence compared between the two subgroups
  protection against photo-carcinogenesis, application one hour before vs one hour after UV light: superior protection
[2]
  effect on proliferation rate (FIG. 4): inhibit the proliferation rate
  apoptosis: induce apoptosis

## C[C@@H](C(=O)O)c1ccc(-c2ccccc2)c(F)c1 [R-FB, R-flurbiprofen]
[2]
  difference between the enantiomers in anti-proliferative potency: no difference
  effect on proliferation rate (FIG. 4): inhibit the proliferation rate
  apoptosis: induce apoptosis
[3]
  COX inhibitory activity: low COX inhibition

## CC(C)Cc1ccc([C@@H](C)C(=O)O)cc1 [R-ibuprofen]
[4]
  IC50: 1490 µM

## C[C@H](C(=O)O)c1ccc(-c2ccccc2)c(F)c1 [S-FB, S-flurbiprofen]
[2]
  difference between the enantiomers in anti-proliferative potency: no difference
  effect on proliferation rate (FIG. 4): inhibit the proliferation rate
  apoptosis: induce apoptosis
[3]
  COX inhibitory activity: can inhibit cyclooxygenase

## CC(C)Cc1ccc([C@H](C)C(=O)O)cc1 [S-ibuprofen]
[4]
  IC50: 1500 µM

## CC(=O)Oc1ccccc1C(=O)O [aspirin]
[4]
  IC50: 970 to 5530 µM

## CC1=C(CC(=O)O)c2cc(F)ccc2/C1=C\c1ccc([S+](C)[O-])cc1 (stereo not shown) [sulindac]
[4]
  IC50: 1030 to 2160 µM
